Source: patent US9128100B2, “Non-invasive diagnostic method for the evaluation of intestinal lactase deficiency (hypolactasia)” (Venter Pharma, S.L., priority 2012, dated 2015)
Several values for one entry are separate records, joined by “and”; a condition that tells them apart may be missing. Equal values may be shown once. Entries after “also recorded” stand apart in the source; their conditions may differ.

Columns and labels:
[1] = molecular target: T1, intestinal lactase (Homo sapiens, UniProt P09848); assay: Plasma xylose concentration after single oral doses of 4-GX in healthy volunteers; type: in vivo; details: for AUC 0-t: area under the curve of plasma xylose concentration against time: mean
T1 construct: after its oral administration it is hydrolysed by the intestinal mucosa enzyme; from tissue; host or cells: small-intestinal mucosa (enterocyte brush border) of living human volunteers and patients, in vivo
Method: (§1) Two groups of subjects were selected. […] Firstly, the lowest suitable oral dose of 4-GX administered to healthy volunteers was determined that enabled reliable detection (in terms of accuracy and reproducibility) of xylose levels in urine and blood via the analytical method to be used. In addition, the tolerance of these subjects to the various doses of 4-GX used in the test and the pharmacokinetics for each dose administered were analysed, both in urine and blood. The doses of 4-GX used were: 0.125 g, 0.250 g, 0.5 g, 1 g, 3 g and 6 g in addition to placebo in 12 healthy volunteers with washout period between doses of between three and seven days. It should be appreciated that the 4-GX doses can include small quantities of water which remain subsequent to the drying process of the 4-GX product. For example, the 4-GX product can contain about 8 wt % to about 12 wt %, most likely about 10 wt % water, based on the total weight of the product. Accordingly, the aforementioned 4-GX doses administered would actually include 0.1125 g, 0.225 g, 0.45 g, 0.9 g, 2.7 g and 5.4 g of actual 4-GX product, respectively, if they contain 10 wt % water. The study was performed with seven treatment periods and a washout time between the various periods of at least 3 days. In each study period, an ascending dose of 4-GX was administered and the serum and urine concentrations of xylose were measured at various times up to 8 hours following the administration of the drug.
The main measured variable was the quantity of xylose in urine collected following oral administration of 4-GX at the following times: basal, 0-1 h, 1-2 h, 2-3 h, 3-4 h, 4-5 h, 5-6 h, 6-7 h and 7-8 h. Secondary variables quantified were the plasma concentration of xylose measured in blood samples extracted following the oral administration of 4-GX at the following times: basal, 30 min, 60 min, 90 min, 120 min, 150 min, 3 h, 4 h, 5 h, 6 h, 7 h and 8 h. A pharmacokinetic analysis was also performed using the values of AUC (area under the curve of variation in the plasma xylose concentration against time), Cmax (maximum xylose plasma concentration), Tmax (time at which maximum xylose plasma concentration was reached) and T1/2 (elimination half-life), calculated from the plasma concentrations of xylose derived from the hydrolysis of 4-GX by intestinal lactase.
The next objective was the determination and pharmacokinetic analysis of the xylose concentration in plasma in order to identify the smallest dose of 4-GX that could be distinguished from placebo (without 4-GX administration) to be used in the 4-GX test for the diagnosis of intestinal lactase deficiency (Table 3).

[2] = molecular target: T1, intestinal lactase; assay: Lower limits of normal (cut-off points) of xylose in urine and blood of healthy controls after 4-GX; type: in vivo; details: mean minus 1.96 SD of healthy controls
From the text: The indicator of the lower limit of normal was taken to be the difference between the average xylose concentrations in blood and/or the difference between the average total amounts of xylose excreted in the urine, and 1.96 times the standard deviation.
The data obtained with the 4-GX administration test in the healthy control group was used to determine the lower limits of normal of xylose in urine and blood (cut-off points). The cut-off points for the 4-GX test in urine were obtained for times of 4 hours and 5 hours because, as already seen in example 2, these times are the best for determining the amount of xylose excreted in urine following 4-GX administration and performing a reliable diagnosis of lactase deficiency. Similarly, the cut-off points for the determination of the blood xylose concentration following 4-GX administration were obtained for the time of 90 minutes following ingestion of the disaccharide. The difference between the average xylose concentration (in blood and the total quantity of xylose excreted in the urine) and 1.96 times the standard deviation was used for the lower limit of normal indicator. The lower limit of xylose accumulated in 4-hour urine was 27.58 mg; xylose accumulated in 5-hour urine was 37.87 mg and the increase in the concentration of plasma xylose after 90 minutes following ingestion of the product, compared to basal blood, was 0.97 mg/dL.

[3] = Safety and tolerance of the 4-GX doses; type: in vivo, human; details: all doses of 4-GX used (0.125 g to 6 g oral)
Method: as §1, with “The study was performed with seven treatment periods and a washout time between the various periods of at least 3 days.” left out

[4] = molecular target: T1, intestinal lactase; details: ES 2208099, cited from earlier work

T1 sequence (P09848 869-1927): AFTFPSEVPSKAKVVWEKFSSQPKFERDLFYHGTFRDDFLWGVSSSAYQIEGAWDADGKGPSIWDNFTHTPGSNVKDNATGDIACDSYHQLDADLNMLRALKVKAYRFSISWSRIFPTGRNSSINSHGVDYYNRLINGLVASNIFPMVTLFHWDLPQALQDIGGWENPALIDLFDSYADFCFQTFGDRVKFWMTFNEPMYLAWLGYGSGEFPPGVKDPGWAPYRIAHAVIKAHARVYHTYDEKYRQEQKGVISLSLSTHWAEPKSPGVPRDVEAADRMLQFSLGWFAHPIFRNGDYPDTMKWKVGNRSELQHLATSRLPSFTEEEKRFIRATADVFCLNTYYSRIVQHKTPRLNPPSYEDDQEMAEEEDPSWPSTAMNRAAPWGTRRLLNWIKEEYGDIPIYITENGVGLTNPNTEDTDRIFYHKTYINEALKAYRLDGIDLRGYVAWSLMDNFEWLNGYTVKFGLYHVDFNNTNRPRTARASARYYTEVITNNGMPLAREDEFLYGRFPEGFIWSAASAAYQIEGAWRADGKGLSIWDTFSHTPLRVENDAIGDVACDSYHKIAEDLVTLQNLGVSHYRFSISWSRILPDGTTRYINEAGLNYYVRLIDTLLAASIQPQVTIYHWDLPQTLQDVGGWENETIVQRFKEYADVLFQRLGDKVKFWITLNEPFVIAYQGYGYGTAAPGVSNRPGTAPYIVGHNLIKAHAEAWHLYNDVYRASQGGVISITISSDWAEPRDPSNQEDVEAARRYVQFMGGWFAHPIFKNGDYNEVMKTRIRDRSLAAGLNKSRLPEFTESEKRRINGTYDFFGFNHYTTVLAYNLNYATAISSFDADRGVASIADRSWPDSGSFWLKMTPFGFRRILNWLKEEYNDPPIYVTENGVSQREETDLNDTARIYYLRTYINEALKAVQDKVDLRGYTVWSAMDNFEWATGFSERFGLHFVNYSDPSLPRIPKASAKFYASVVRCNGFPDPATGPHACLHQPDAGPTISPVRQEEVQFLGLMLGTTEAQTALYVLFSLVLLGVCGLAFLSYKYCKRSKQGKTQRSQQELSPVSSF

- AUC 0-t: area under the curve of plasma xylose concentration against time ([1]; 4-GX 0.125 g oral): 32.49 mg/dL/h
- AUC 0-t: area under the curve of plasma xylose concentration against time ([1]; 4-GX 0.250 g oral): 34.25 mg/dL/h
- AUC 0-t: area under the curve of plasma xylose concentration against time ([1]; 4-GX 0.5 g oral): 35.53 mg/dL/h
- AUC 0-t: area under the curve of plasma xylose concentration against time ([1]; 4-GX 1 g oral): 36.60 mg/dL/h
- AUC 0-t: area under the curve of plasma xylose concentration against time ([1]; 4-GX 3 g oral): 39.24 mg/dL/h
- AUC 0-t: area under the curve of plasma xylose concentration against time ([1]; 4-GX 6 g oral): 41.39 mg/dL/h
- lowest dose of 4-GX for which plasma xylose differs significantly from placebo ([1]; healthy volunteers): 3 g
- Cut-off point, total xylose in 4-hour urine ([2]; 4-GX 0.125 g): 11.88 mg
- Cut-off point, total xylose in 5-hour urine ([2]; 4-GX 0.125 g): 16.72 mg
- Cut-off point, total xylose in 4-hour urine ([2]; 4-GX 0.250 g): 20.62 mg
- Cut-off point, total xylose in 5-hour urine ([2]; 4-GX 0.250 g): 28.08 mg
- Cut-off point, total xylose in 4-hour urine ([2]; 4-GX 0.5 g): 27.58 mg
- Cut-off point, total xylose in 5-hour urine ([2]; 4-GX 0.5 g): 37.87 mg
- Cut-off point, xylose concentration in 90-min blood (increase over basal) ([2]; 4-GX 0.5 g): 0.41 mg/dL
- Cut-off point, total xylose in 4-hour urine ([2]; 4-GX 1 g): 33.04 mg
- Cut-off point, total xylose in 5-hour urine ([2]; 4-GX 1 g): 41.35 mg
- Cut-off point, xylose concentration in 90-min blood (increase over basal) ([2]; 4-GX 1 g): 0.53 mg/dL
- Cut-off point, total xylose in 4-hour urine ([2]; 4-GX 3 g): 45.58 mg
- Cut-off point, total xylose in 5-hour urine ([2]; 4-GX 3 g): 69.57 mg and 69.75 mg
- Cut-off point, xylose concentration in 90-min blood (increase over basal) ([2]; 4-GX 3 g): 0.97 mg/dL
- Cut-off point, total xylose in 4-hour urine ([2]; 4-GX 6 g): 87.96 mg
- Cut-off point, total xylose in 5-hour urine ([2]; 4-GX 6 g): 110.12 mg
- Cut-off point, xylose concentration in 90-min blood (increase over basal) ([2]; 4-GX 6 g): 1.44 mg/dL
Structure (SMILES): O=C[C@H](O)[C@@H](O)[C@@H](CO)O[C@@H]1O[C@H](CO)[C@H](O)[C@H](O)[C@H]1O [4-GX, 4-O-β-galactopyranosyl-D-xylose]
- adverse reactions, safety and tolerance [3]: safe and innocuous; also recorded: no clinically significant adverse reactions were found
- time of maximum xylose in plasma after ingestion ([4]; 3 g 4-GX oral, lactose-tolerant adult volunteers): around 2 hours
- dose of 4-GX sufficient for reliable detection of xylose in urine ([4]; healthy lactose-tolerant adult volunteers): 0.25 g
